From US10137171B2, “Methods of treatment using a pentapeptide derived from the C-Terminus of Glucagon-Like Peptide 1 (GLP-1)” (The General Hospital Corporation, priority 2011, dated 2018)
Entries after “also recorded” stand apart in the source; their conditions may differ. Where no end group is shown, it is not given here.

Assays:
[1] = system: diet-induced obese mice; assay: Metabolic parameters in closed metabolic chambers (TSE PhenoMaster/LabMaster); format: in vivo, mouse
From the text: FIGS. 4A-C show the results of metabolic measurements of body weights, energy expenditure (VO2), and physical activities of mice during three days of monitoring in TSE-Systems metabolic cages. Mice were 37 weeks old and fed the very high fat diet for 31 weeks at the time of the study. 4A. Line graph showing body weights during three-day monitoring. Vehicle N=2; GLP-1s N=3. # p<0.01; ## p<0.006; ## p<0.008; ## p<0.007. 4B. Bar graph and line graph showing total body oxygen consumption (VO2) measured during both light and dark cycles for the three days of monitoring. Upper panel; Total VO2. Lower panel: Daily time-course of VO2 during light and dark cycles averaged over the three days. Vehicle N=2; GLP-1s N=3. 4C. Bar graph and line graph showing physical activity of the mice during the three days of the metabolic studies. Upper panel: Total activities averaged for light and dark cycles. Lower panel: Time-dependent measurements of activities. Activities were measured for hourly intervals during the light cycle of six hours (13:00 to 18:00) and for two hour intervals during the dark cycle of 12 hours (18:00 to 6:00). […] Vehicle N=2; GLP-1s N=3. The findings support a model of increased basal energy expenditure in mice infused with GLP-1(32-36)amide versus mice infused with control vehicle, independent of endogenous energy expenditure due to physical activity. N=3 mice for pentapeptide infusion and N=2 mice for control vehicle infusion.
FIGS. 4D-G show the results of metabolic measurements of energy expenditure (VO2) of monitoring in TSE-Systems metabolic cages. Mice were 33-34 weeks old and fed the very high fat diet for […] at the time of the study. 4D and 4E. Line graph and bar graph showing total body oxygen consumption (VO2) measured during the light phase during two days. 4F and 4G. Line graph and bar graph showing lean body oxygen consumption (VO2) measured during the light phase during two days.
Mice were single-caged for three days acclimatization and then transferred to single-cage metabolic chambers in a PhenoMaster/LabMaster system (TSE-Systems, Inc., Chesterfield, Mo.) for measurements of oxygen consumption, CO2, physical activity, and food intake during light and dark cycles for a period of 72 hrs.

[2] = system: diet-induced obese mice; assay: Fasting plasma glucose and insulin measurements; format: in vivo, mouse; settings: 16 h fast, after 12 weeks infusion, 29 weeks on VHFD
From the text: FIGS. 5A-B are a pair of bar graphs showing that GLP-1(32-36)amide attenuates the development of fasting hyperglycemia and hyperinsulinemia in high fat-fed mice. Mice fed the VHFD develop hyperglycemia, hyperinsulinemia, diabetes, and insulin resistance during weeks 15 to 29 of diet-induced obesity (21-35 weeks of age, respectively). A 12-week infusion of either control vehicle or pentapeptide started at 17 weeks on high-fat diet (23 weeks of age). FIG. 5A: Fasting plasma glucose levels *p<0.0004 vehicle vs. GLP-1(32-36)a. FIG. 5B: Fasting insulin levels *p<0.042 vehicle vs. GLP-1(32-36)a. The studies are in mice fed a VHFD for 15 weeks, two weeks before beginning the continuous infusions of either control vehicle or pentapeptide. Continuous infusions of vehicle or pentapeptide GLP-1(32-36)amide were give during weeks 17 to 29 of diet (23 to 35 weeks of age). Weeks denoted on the ordinate scales refers to weeks of age. N=6 mice per group. Values are means+/−SEMs.
Plasma obtained by tail nick from mice fasted for 16 hrs was assayed for glucose by using the one touch ultra-mini glucometer (Life Scan, Johnson and Johnson company) and for insulin with a rat/mouse Elisa kit (Crystal Chem, Downers Grove, Ill.).
Fasting immunoreactive insulin levels: whole blood samples were spun in a refrigerated microfuge at 14,000 rpm for 10 minutes and transferred to a clean tube. […]

[3] = system: diet-induced obese mice; assay: Plasma circulating glycerol and triglyceride (FIG. 6C); format: in vivo, mouse; settings: 16 weeks continuous infusion, 60% fat diet 24 weeks (FIG. 6C)
From the text: FIG. 6C is a table showing continuous infusion of GLP-1(32-36)amide for 16-weeks improves plasma circulating levels of glycerol and triglyceride in mice fed on a 60% fat diet (VHFD) for 24-weeks. *p<0.02, peptide vs. vehicle; **p<0.008 peptide vs. vehicle.

[4] = system: H4IIe hepatoma cells; assay: ROS formation assay (H4IIe hepatoma cells); format: cell-based; settings: 0.2 mM palmitate 24 hr, 100 pM peptide (FIG. 9B)
Protocol: FIG. 9B is a bar graph showing inhibition of the production of ROS in H4IIe hepatoma cells. BSA n=14. palmitate n=13. 32-36/palmitate n=12. *p<0.005 palmitate vs BSA, # p<0.03 palmitate vs GLP-1(32-36)a/palmitate
H4IIe cells were seeded in 12-well plates at a density of 1×10^4/well and incubated overnight in media containing 5.0 mM glucose. Media was then supplemented with 0.20 mM palmitate in BSA, with and without 100 pM GLP-1(32-36)amide and incubated for an additional 24 h. Intracellular ROS was measured by 5-(and 6)-carboxy-2′,7′-dichlorohydro-fluorescein diacetate (CM-H2DCFDA) (Molecular Probes) as follows. Cells were washed twice in HBSS (Hanks' Balance Salt Solution) and incubated with 10 uM CM-H2DCFDA for 45 minutes. The media were removed and cells were lysed. ROS was measured in the cell lysates using a spectrofluorometer (485 nm/535 nm). Data were normalized to values obtained from the cells treated with palmitate. BSA n=14. Palmitate n=13. 32-36/Palmitate n=12.

LVKGRamide (LVKGR-NH2) [GLP-1(32-36)amide, pentapeptide derived from the C-terminus of the glucoincretin hormone GLP-1]
body weight during three-day metabolic chamber monitoring ([1]; VHFD 31 weeks, infusion twelve weeks, vehicle 52 (FIG. 4A)): 38 grams | cumulative food consumption vs vehicle ([1]; indirect calorimetric studies): lower | physical activity vs vehicle ([1]; light and dark cycles (FIG. 4C)): not significantly different; also recorded: not associated with changes; also recorded: no significant differences | whole body oxygen consumption (Total VO2) vs vehicle ([1]; light cycle and dark cycle (FIG. 4B)): significantly higher | resting oxygen consumption vs vehicle ([1]; light cycle and dark cycle (FIG. 4D, 4E)): increase | fasting plasma glucose ([2]; vehicle 8.8 (FIG. 5A)): 5.5 mM | fasting plasma insulin ([2]; vehicle 300 (FIG. 5B)): 250 pM | plasma circulating levels of glycerol and triglyceride [3]: improves; also recorded: lowered | ROS production [4]: nearly completely normalizes | ROS production ([4]; listed as GLP-1(32-36)a): inhibition
